Assay results reported in publication PMC9811466, “Structural Features Affecting the Interactions and Transportability of LAT1-Targeted Phenylalanine Drug Conjugates” (Molecular Pharmaceutics, 2022).
Several values for one entry are separate records, joined by “and”; a condition that tells them apart may be missing. Equal values may be shown once. Entries after “also recorded” stand apart in the source; their conditions may differ. Read-outs that look alike come from different tables or passages of the source.

Assays:
HEK-MOCK cells = test: Concentration-dependent cellular uptake into HEK-MOCK cells; type: cell-based, human; conditions: for Km: compounds 1-12; for Vmax: compounds 1-12, 2-400 μM, 10 min
Protocol: (§1) The concentrations for the compounds were in the range of 2–400 μM. Otherwise, the experiment was carried out as described above and analyzed by liquid chromatography coupled with an electrospray ionization (ESI) triple quadrupole mass spectrometer (LC–MS–MS). […]
(§2) The concentration-dependent uptake studies were performed by adding 2–400 μM of the tested compound in 250 μL of prewarmed HBSS buffer on the cell layer. […] After incubation, the cells were washed and lysed as described above. The lysate was collected from wells into an Eppendorf tube and centrifuged at 4 °C, the supernatant was collected, and the intracellular concentrations of studied compounds were analyzed by liquid chromatography coupled with an ESI triple quadrupole mass spectrometer (LC–MS–MS). The results were calculated from the standard curve that was prepared by spiking known amounts of each compound to the cell lysate and normalized to protein concentration. The protein concentrations on each plate were determined as a mean of three samples by Bio-Rad Protein Assay, based on the Bradford dye-binding method, using BSA as a standard protein and measuring the absorbance (595 nm) by a multiplate reader (EnVision, PerkinElmer, Inc., Waltham, MA, USA). All statistical analyses (Michaelis–Menten kinetic parameters) were performed using GraphPad Prism v. 5.03 software (GraphPad Software, San Diego, CA., USA). […]
(§3) After protein precipitation, the samples were centrifuged for 10 min with 10,000 g at 4 °C. The supernatant was then collected and transferred to vials for LC–MS/MS analysis. For BCH and gabapentin, cells were also lysed with 0.1 M NaOH, an aliquot was taken from the lysates, and perchloric acid (PCA) was added to precipitate the proteins. The samples were then centrifuged, and the supernatant was diluted 1:10 with H20 with 0.1% formic acid including the IS and transferred to vials for analysis.
(§4) The samples were analyzed with LC–MS/MS coupled with an Agilent 1200 series Rapid Resolution LC System (Agilent Technologies, Waldbronn, Germany) and an Agilent 6410 Triple Quadrupole with electrospray ionization (ESI) (Agilent Technologies, Palo Alto, CA, USA). […] The aqueous mobile phase was 0.1% formic acid in water (A), while the organic mobile phase was 0.1% formic acid in acetonitrile (B). […] For compound 4: 0–4 min 10% → 90% B, 4–6 min 90% B, 6–6.1 min 90% → 10%, 6.1–9 min 10%. For compound 5: 0–1 min 20% → 95% B, 1–4 min 95%, 4–4.1 min 95% → 20%, 4.1–7 min 20%. For compounds 6 and 9: 0–2 min 10% → 95%, 2–6 min 95%, 6–6.1 min 95% → 10%, 6.1–9 min 10%. For compound 8: 0–1 min 20% → 80%, 1–5.2 min 80%, 5.2–5.3 min 80% → 20%, 5.3–9 min 20%.

hLAT1/4F2hc [1] = biological target: T1, hLAT1/4F2hc (Homo sapiens, UniProt Q01650); test: Concentration-dependent cellular uptake into HEK-hLAT1 cells (LC-MS/MS, Michaelis-Menten); type: cell-based; conditions: HEK-hLAT1 cells, compounds 1-12; for Vmax: 2-400 μM, 10 min
T1 construct: Invitrogen (host cells)
T1 sequence (Q01650 whole entry): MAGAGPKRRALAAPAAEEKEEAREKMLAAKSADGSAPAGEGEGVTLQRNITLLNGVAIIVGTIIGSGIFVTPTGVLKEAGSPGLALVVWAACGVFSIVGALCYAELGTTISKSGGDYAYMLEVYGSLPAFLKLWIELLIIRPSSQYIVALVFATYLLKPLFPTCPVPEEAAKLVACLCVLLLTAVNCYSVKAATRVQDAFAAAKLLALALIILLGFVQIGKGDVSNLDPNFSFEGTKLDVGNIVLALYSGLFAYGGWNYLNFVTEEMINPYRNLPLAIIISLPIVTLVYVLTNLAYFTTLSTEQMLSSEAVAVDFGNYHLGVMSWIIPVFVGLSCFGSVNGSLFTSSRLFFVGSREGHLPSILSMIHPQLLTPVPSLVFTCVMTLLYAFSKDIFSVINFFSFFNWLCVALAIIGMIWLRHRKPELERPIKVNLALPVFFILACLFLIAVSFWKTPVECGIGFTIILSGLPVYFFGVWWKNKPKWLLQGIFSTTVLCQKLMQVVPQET
T1 sequence (P08195 102-630 partner): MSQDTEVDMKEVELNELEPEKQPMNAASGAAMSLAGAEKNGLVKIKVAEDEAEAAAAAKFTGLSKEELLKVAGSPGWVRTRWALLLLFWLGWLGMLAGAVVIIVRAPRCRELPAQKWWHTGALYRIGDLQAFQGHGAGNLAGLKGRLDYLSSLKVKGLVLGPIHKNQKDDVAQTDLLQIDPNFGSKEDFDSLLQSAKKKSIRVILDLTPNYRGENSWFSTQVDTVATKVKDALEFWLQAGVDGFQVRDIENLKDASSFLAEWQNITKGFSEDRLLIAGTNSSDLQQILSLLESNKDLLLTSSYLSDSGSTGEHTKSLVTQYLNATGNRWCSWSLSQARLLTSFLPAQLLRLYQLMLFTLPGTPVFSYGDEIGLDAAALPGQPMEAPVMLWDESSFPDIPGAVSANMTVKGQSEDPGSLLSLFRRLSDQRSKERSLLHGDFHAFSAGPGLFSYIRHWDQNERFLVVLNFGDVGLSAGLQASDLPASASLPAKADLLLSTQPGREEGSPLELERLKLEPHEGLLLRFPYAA
Protocol: as §1, §2, §3, §4

hLAT1/4F2hc [2] = biological target: T1, hLAT1/4F2hc; test: cis-inhibition of [14C]-L-leucine uptake in HEK-hLAT1 cells; type: cell-based; conditions: for [14C]-L-Leucine uptake inhibition % (50μM) / inhibition at 50 µM: 50 μM compound; for inhibition at 50 µM: read-out: [14C]-L-Leucine uptake inhibition % (50μM)
Protocol: (§5) In the following experiments, the MCF-7, HEK-hLAT1, and HEK-MOCK cells were cultured, seeded, and preincubated as described above. The HBSS was removed, and the ability of the compounds to inhibit the uptake of a known LAT1 substrate, [^14C]-L-leucine (PerkinElmer, Waltham, MA, USA), was studied by incubating the cells at RT for 10 min in uptake buffer pH 7.4 (250 μL) containing 0.76 μM (0.1 mCi/mL) of [^14C]-L-leucine and 0.025–1800 μM of the studied compound (or HBSS as blank). After incubation, the reaction was stopped with ice-cold HBSS, and the cells were washed two times with ice-cold HBSS. The cells were then lysed with 250 μL of 0.1 M sodium hydroxide, the lysate was mixed with 1.0 mL of Emulsifier safe cocktail (PerkinElmer, Waltham, MA, USA), and the radioactivity was measured with a liquid scintillation counter (MicroBeta^2 counter, PerkinElmer, Waltham, MA, USA). The inhibition of [^14C]-L-leucine in the presence of the studied compounds as compared to the control (HBSS) was calculated as percentages (%).
Using the stably hLAT1/4F2hc expressing cell line, the compounds’ inhibitory efficiencies and uptake kinetics were determined via the cis-inhibition assay and uptake studies, respectively. (Table 1) Cis-inhibition is based on the competition between the ligand and LAT1 substrate [^14C]-L-leucine that results in inhibition of substrate uptake. The competitive uptake with L-leucine is reported as the IC50 value of L-leucine uptake and extent as inhibition percentage (%) at a given concentration.

hLAT1/4F2hc [3] = biological target: T1, hLAT1/4F2hc; test: Concentration-dependent cellular uptake into HEK-hLAT1 cells (LC-MS/MS, Michaelis-Menten); type: cell-based; conditions: difference in uptake HEK-hLAT1 vs HEK-MOCK, with docking poses; 2-100 μM curves
MCF-7 cells = conditions: cited from earlier work
[4] = biological target: T2, LAT1 in MCF-7 human breast cancer cells (Homo sapiens, UniProt Q01650); test: cis-inhibition of [14C]-L-leucine uptake in MCF-7 cells; type: cell-based; conditions: for inhibition at 50 µM: MCF7, MCF-7 cells
T2 construct: wild-type MCF-7 human breast cancer cell line; endogenous in cells; host or cells: MCF-7 human breast cancer cells (wild type)
T2 sequence (Q01650 whole entry): as the sequence (Q01650 whole entry) above
T2 sequence (P08195 102-630 partner): as the sequence (P08195 102-630 partner) above
Protocol: Cells were cultured in DMEM (Gibco, ThermoFisher Scientific, Waltham, MA, USA) supplemented with L-glutamine (2 mM; ThermoFisher Scientific, Waltham, MA, USA), heat-inactivated fetal bovine serum (10%; Gibco, ThermoFisher Scientific, Waltham, MA, USA), penicillin (50 U/mL)-streptomycin (50 μg/mL) solution (ThermoFisher Scientific, Waltham, MA, USA), and hygromycin B solution (100 μg/mL) for transfected cells. HEK-hLAT1 and HEK-MOCK cells (passages 7–20) were seeded at a density of 5 × 10^5 cells/wells onto 24-well plates. The cells were used in the characterization, competition, and uptake studies 2 days after seeding. MCF-7 cells were seeded at a density of 1 × 10^5 and were used in the competition studies 1 day after seeding. The culture medium was removed, and the cells were washed with prewarmed Hanks’ balanced salt solution (HBSS; 125 mM NaCl, 4.8 mM KCl, 1.2 mM MgSO4, 1.2 mM KH2PO4, 1.3 mM CaCl2, 5.6 mM D-glucose, and 25 mM HEPES, pH 7.4). The cells were then incubated with HBSS at 37 °C for 10 min before the experiments.
as §5

[5] = biological target: T2, LAT1 in MCF-7 human breast cancer cells; conditions: MCF-7 cells; read-out: IC50 of [14C]-L-leucine uptake; cited from earlier work
[6] = Conversion of ester conjugate in 0.1 M NaOH (sample lysis); type: physicochemical
Protocol: For compound 9, the LLOQ was 0.05 nM with good linearity (R^2 > 0.983).[34] For the compounds 1, 7, and 12, the LLOQ was 12.5 nM, with a linear range of 12.5–2500 nM, and for 11, the LLOQ was 6.3 nM, over the range of 6.3–6250 nM.[28] For 10, the calibration curve was linear with a LLOQ of 1 ng/mL (accuracy ±15%), respectively.[26] For compounds 2–5, the LLOQ was 5.0 nM.[29] Methods were also selective, accurate (RSD < 15%), and precise (RSD < 15%) over the range of 5.0–1000 nM for 5 and for compounds 2–4 5.0–2000 nM. For compound 6, the LLOQ was 10 pmol/g.[33] Ketoprofen was linear with a range of 0.25–25 ng/mL, while compound 8 was completely converted to ketoprofen in 0.1 M NaOH within 30 min.

[7] = HEK-hLAT1 cells, compounds 1-12
[8] = HEK-hLAT1 cells, compounds 1-12, read-out: IC50 of [14C]-L-leucine uptake
[9] = HEK-hLAT1 cells, compounds 1-12, 50 µM

SMILES | Km (HEK-MOCK cells) [µM] | Vmax (HEK-MOCK cells) | Km (hLAT1/4F2hc [1]) [µM] | Vmax (hLAT1/4F2hc [1]) | IC50 (hLAT1/4F2hc [2]) [µM] | [14C]-L-Leucine uptake inhibition % (50μM) (hLAT1/4F2hc [2]; [7]) | interaction class with LAT1 (interaction and transportability) (hLAT1/4F2hc [3]) | Vmax (MCF-7 cells; MCF-7 cells, previous studies) [pmol/min/mg] | inhibition at 50 µM ([4]; 50 μM compound) [%] | Km (hLAT1/4F2hc [1]; read-out: Km) [µM] | IC50 [5] [µM] | inhibition at 50 µM (hLAT1/4F2hc [2]; [7]) [%] | IC50 (hLAT1/4F2hc [2]; [8]) [µM] | IC50 ([4]; MCF-7 cells) [µM] | time to complete conversion to ketoprofen [6] [min] | [14C]-L-Leucine uptake inhibition % (50μM) (hLAT1/4F2hc [2]; [9]) | [14C]-L-Leucine uptake inhibition % (50μM) ([4]; MCF-7 cells, 50 μM compound, 50 µM) [%] | Km (MCF-7 cells; MCF-7 cell line) [µM] | Vmax (MCF-7 cells; MCF-7 cell line) [pmol/min/mg]
N[C@@H](Cc1ccc(OC(=O)NCCc2ccc(O)c(O)c2)cc1)C(=O)O [Compound 2] | 8.7 ± 12 | 19 pmol/min/mg of protein and 19±12 pmol/min/mg of protein | 103 ± 41 | 1521 pmol/min/mg of protein and 1521±364 pmol/min/mg of protein | > 100 | no inhibition | highest interactions | < 3 |  |  |  |  |  |  |  |  |  |  | 
CC(C(=O)Nc1cccc(C[C@H](N)C(=O)O)c1)c1cccc(C(=O)c2ccccc2)c1 (stereo partly drawn) [Compound 5] | 109 ± 69 | 63±24 pmol/min/mg of protein |  | 63±7.5 pmol/min/mg of protein |  |  | medium interactions |  | 93 ± 0.5 | 19 ± 7.3 | 0.5 ± 0.05 | 48 ± 1.8 | 11 |  |  |  |  |  | 
CC(C(=O)Oc1cccc(C[C@H](N)C(=O)O)c1)c1cccc(C(=O)c2ccccc2)c1 (stereo partly drawn) [Compound 8] |  |  |  |  |  |  |  |  | 83 ± 0.9 |  |  | 24 ± 2.3 | > 100 | 0.4 ± 0.08 | ≤ 30 |  |  |  | 
COc1cc(/C=C/C(=O)Nc2cccc(C[C@H](N)C(=O)O)c2)ccc1O [Compound 9] | 94 ± 45 | 149±41 pmol/min/mg of protein |  |  |  |  | low |  | 79.7 ± 7.87 |  | 1.1 ± 0.08 |  | > 100 |  |  | not able to inhibit; also recorded: no inhibition |  |  | 
CCCN(CCC)S(=O)(=O)c1ccc(C(=O)Nc2cccc(C[C@H](N)C(=O)O)c2)cc1 [Compound 10] |  | 248±616 pmol/min/mg of protein |  |  |  |  | low |  | 40 |  |  | 10 | > 100 | 137 ± 1.6 |  | 11±9.9% | 45±1.7 | 15.2 | 111
